# Read-outs that look alike come from different tables or passages of the source.
# What was measured:
# [1] = system: Staphylococcus aureus 697 E; test: In vitro anti-bacterial activity test (MIC, two-fold dilution method), Table 2 strains; assay type: cell-based; details: Table 2 strain 10: Staphylococcus aureus 697 E
# [2] = system: Staphylococcus aureus 711 E; test: as above; assay type: cell-based
# [3] = system: Staphylococcus aureus 208 E; test: as above; assay type: cell-based
# [4] = system: Staphylococcus aureus 694 E; test: as above; assay type: cell-based
# [5] = system: Staphylococcus aureus SG 511; test: In vitro anti-bacterial activity test (MIC, two-fold dilution method) against the standard strains; assay type: cell-based; details: SG511; Table 1 strain 4: Staphylococcus aureus SG 511
# [6] = system: Staphylococcus aureus 707 E; test: In vitro anti-bacterial activity test (MIC, two-fold dilution method), Table 2 strains; assay type: cell-based
# [7] = system: Staphylococcus aureus 256 E; test: as above; assay type: cell-based; details: Table 2 strain 4: Staphylococcus aureus 256 E
# [8] = system: Staphylococcus aureus 725 E; test: as above; assay type: cell-based
# [9] = system: Streptococcus pyogenes 77 A; test: In vitro anti-bacterial activity test (MIC, two-fold dilution method) against the standard strains; assay type: cell-based
# [10] = system: Klebsiella aerogenes 1082 E; test: as above; assay type: cell-based; details: Table 1 strain 17: Klebsiella aerogenes 1082 E
# Escherichia coli DC 0 [11] = test: as above; assay type: cell-based; details: DC0; Table 1 strain 8: Escherichia coli DC 0
# [12] = system: Pseudomonas aeruginosa 1771 M; test: as above; assay type: cell-based; details: Table 1 strain 15: Pseudomonas aeruginosa 1771 M
# [13] = system: Streptococcus pyogenes 308 A; test: as above; assay type: cell-based; details: Table 1 strain 1: Streptococcus pyogenes 308 A
# Escherichia coli OTEM = test: as above; assay type: cell-based; details: Table 1 strain 10: Escherichia coli OTEM
# [14] = system: Streptococcus faecium MD 8b; test: as above; assay type: cell-based; details: Enterococcus faecium, MD8B
# [15] = system: Staphylococcus aureus 703 E; test: In vitro anti-bacterial activity test (MIC, two-fold dilution method), Table 2 strains; assay type: cell-based
# [16] = system: Pseudomonas aeruginosa 1771; test: In vitro anti-bacterial activity test (MIC, two-fold dilution method) against the standard strains; assay type: cell-based; details: Table 1 strain 14: Pseudomonas aeruginosa 1771
# [17] = system: Pseudomonas aeruginosa 9027; test: as above; assay type: cell-based; details: Table 1 strain 12: Pseudomonas aeruginosa 9027
# [18] = system: Staphylococcus aureus 695 E; test: In vitro anti-bacterial activity test (MIC, two-fold dilution method), Table 2 strains; assay type: cell-based
# [19] = system: Staphylococcus aureus 693 E; test: as above; assay type: cell-based
# [20] = system: Staphylococcus aureus 705 E; test: as above; assay type: cell-based
# [21] = system: Staphylococcus aureus 708 E; test: as above; assay type: cell-based; details: Table 2 strain 16: Staphylococcus aureus 708 E
# [22] = system: Staphylococcus aureus 701 E; test: as above; assay type: cell-based
# [23] = system: Staphylococcus aureus 285; test: In vitro anti-bacterial activity test (MIC, two-fold dilution method) against the standard strains; assay type: cell-based
# [24] = system: Pseudomonas aeruginosa 1592 E; test: as above; assay type: cell-based; details: Table 1 strain 13: Pseudomonas aeruginosa 1592 E
# [25] = system: Staphylococcus aureus 714 E; test: In vitro anti-bacterial activity test (MIC, two-fold dilution method), Table 2 strains; assay type: cell-based
# Escherichia coli DC 2 = test: In vitro anti-bacterial activity test (MIC, two-fold dilution method) against the standard strains; assay type: cell-based; details: DC2; Table 1 strain 9: Escherichia coli DC 2; read-out: MIC
# Escherichia coli DC 0 [26] = test: as above; assay type: cell-based; details: DC0; Table 1 strain 7: Escherichia coli DC 0
# [27] = system: Staphylococcus aureus 121 E; test: In vitro anti-bacterial activity test (MIC, two-fold dilution method), Table 2 strains; assay type: cell-based
# [28] = system: Staphylococcus aureus 690 E; test: as above; assay type: cell-based
# [29] = system: Staphylococcus aureus 706 E; test: as above; assay type: cell-based
# P. mirabilis = test: Preventive effect against the systemic infection; assay type: in vivo; details: Proteus mirabilis, 168 h, NMRI mice, survival on day 7, read-out: ED₅₀
# Method: (§1) 10 fold of the pathogen which leads to 100% lethality were injected intraperitoneally to male and female NMRI mice weighing 18 to 20g. Immediately and after 4 hours, the dose of test compounds which was determined by two-fold serial dilution method was administered orally or subcutaneously; and on day 7, the effectiveness was evaluated in terms of ED₅₀ calculated from the number of survived mice by the probit analysis.
# S. aureus 17740 = test: Preventive effect against the systemic infection; assay type: in vivo; details: Staphylococcus aureus, 168 h, Oral Administration, NMRI mice, survival on day 7, read-out: ED₅₀
# Method: as §1
# [30] = system: Staphylococcus aureus 692 E; test: In vitro anti-bacterial activity test (MIC, two-fold dilution method), Table 2 strains; assay type: cell-based; details: Table 2 strain 6: Staphylococcus aureus 692 E
# Escherichia coli 1507 E = test: In vitro anti-bacterial activity test (MIC, two-fold dilution method) against the standard strains; assay type: cell-based; details: Table 1 strain 11: Escherichia coli 1507 E
# [31] = system: Staphylococcus aureus 503; test: as above; assay type: cell-based
# [32] = system: Staphylococcus aureus 88 E; test: In vitro anti-bacterial activity test (MIC, two-fold dilution method), Table 2 strains; assay type: cell-based; details: Table 2 strain 1: Staphylococcus aureus 88 E
# [33] = system: Klebsiella aerogenes 1522 E; test: In vitro anti-bacterial activity test (MIC, two-fold dilution method) against the standard strains; assay type: cell-based; details: Table 1 strain 18: Klebsiella aerogenes 1522 E
# [34] = system: Enterobacter cloacae 1321 E; test: as above; assay type: cell-based; details: Table 1 strain 20: Enterobacter cloacae 1321 E
# Salmonella typhimurium = test: as above; assay type: cell-based; details: Salmonella enterica; Table 1 strain 16: Salmonella typhimurium
# [35] = system: Enterobacter cloacae P 99; test: as above; assay type: cell-based; details: P99; Table 1 strain 19: Enterobacter cloacae P 99
compound,measurement,setting,value
"O=C(O)c1cn(C2CC2)c2cc(N3CCNCC3)c(F)cc2c1=O [Ciprofloxacin, ciprofloxacin, reference compound]",MIC,[1],0.391 µg/mL
same,MIC,"[2]; Staphylococcus aureus, 711E",0.781 µg/mL
same,MIC,"[3]; Staphylococcus aureus, 208E",0.781 µg/mL
same,MIC,"[4]; Staphylococcus aureus, 694E",0.781 µg/mL
same,MIC,[5],0.195 µg/mL
same,MIC,"[6]; Staphylococcus aureus, 707E",0.781 µg/mL
same,MIC,[7],1.56 µg/mL
same,MIC,"[8]; Staphylococcus aureus, 725E",0.781 µg/mL
same,MIC,"[9]; Streptococcus pyogenes, 77A",0.781 µg/mL
same,MIC,[10],0.007 µg/mL
same,MIC,Escherichia coli DC 0 [11],0.391 µg/mL
same,MIC,[12],0.098 µg/mL
same,MIC,[13],3.12 µg/mL
same,MIC,Escherichia coli OTEM,0.007 µg/mL
same,MIC,[14],0.781 µg/mL
same,MIC,"[15]; Staphylococcus aureus, 703E",0.781 µg/mL
same,MIC,[16],0.391 µg/mL
same,MIC,[17],0.391 µg/mL
same,MIC,"[18]; Staphylococcus aureus, 695E",0.781 µg/mL
same,MIC,"[19]; Staphylococcus aureus, 693E",0.781 µg/mL
same,MIC,"[20]; Staphylococcus aureus, 705E",0.781 µg/mL
same,MIC,[21],0.195 µg/mL
same,MIC,"[22]; Staphylococcus aureus, 701E",0.781 µg/mL
same,MIC,"[23]; Staphylococcus aureus, 285",0.781 µg/mL
same,MIC,[24],0.391 µg/mL
same,MIC,"[25]; Staphylococcus aureus, 714E",0.781 µg/mL
same,MIC,Escherichia coli DC 2,0.195 µg/mL
same,MIC,Escherichia coli DC 0 [26],0.002 µg/mL
same,MIC,"[27]; Staphylococcus aureus, 121E",0.781 µg/mL
same,MIC,"[28]; Staphylococcus aureus, 690E",0.781 µg/mL
same,MIC,"[29]; Staphylococcus aureus, 706E",0.781 µg/mL
same,ED50,P. mirabilis; Oral Administration,0.82 mg/kg
same,ED50,"P. mirabilis; sc, Subcutaneous Injection",0.16 mg/kg
same,ED50,S. aureus 17740,> 200 mg/kg
same,MIC,[30],0.391 µg/mL
same,MIC,Escherichia coli 1507 E,0.007 µg/mL
same,MIC,"[31]; Staphylococcus aureus, 503",0.781 µg/mL
same,MIC,[32],1.56 µg/mL
"CNC1CC12CCN(c1c(F)cc3c(=O)c(C(=O)O)cn(C4CC4)c3c1Cl)C2 (centres unmarked) [Example 9, 7-(1-methylamino-5-azaspiro[2,4]heptane-5-yl)-8-chloro-1-cyclopropyl-6-fluoro-1,4-dihydro-4-oxo-quinoline-3-carboxylic acid]",MIC,[1],0.049 µg/mL
same,MIC,[33],0.195 µg/mL
same,MIC,"[2]; Table 2 strain 17: Staphylococcus aureus 711 E, read-out: MIC",0.025 µg/mL
same,MIC,[34],0.025 µg/mL
same,MIC,"[3]; Table 2 strain 3: Staphylococcus aureus 208 E, read-out: MIC",0.098 µg/mL
same,MIC,"[4]; Table 2 strain 8: Staphylococcus aureus 694 E, read-out: MIC",0.098 µg/mL
same,MIC,[5],0.049 µg/mL
same,MIC,"[6]; Table 2 strain 15: Staphylococcus aureus 707 E, read-out: MIC",0.098 µg/mL
same,MIC,[7],0.098 µg/mL
same,MIC,"[8]; Table 2 strain 19: Staphylococcus aureus 725 E, read-out: MIC",0.098 µg/mL
same,MIC,"[9]; Table 1 strain 2: Streptococcus pyogenes 77 A, read-out: MIC",0.195 µg/mL
same,MIC,[10],0.025 µg/mL
same,MIC,Escherichia coli DC 0 [11],0.391 µg/mL
same,MIC,[12],0.781 µg/mL
same,MIC,[13],0.391 µg/mL
same,MIC,Escherichia coli OTEM,0.049 µg/mL
same,MIC,"[14]; Table 1 strain 3: Streptococcus faecium MD 8b, read-out: MIC",0.195 µg/mL
same,MIC,"[15]; Table 2 strain 12: Staphylococcus aureus 703 E, read-out: MIC",0.098 µg/mL
same,MIC,[16],1.56 µg/mL
same,MIC,Salmonella typhimurium,0.049 µg/mL
same,MIC,[17],3.12 µg/mL
same,MIC,"[18]; Table 2 strain 9: Staphylococcus aureus 695 E, read-out: MIC",0.049 µg/mL
same,MIC,"[19]; Table 2 strain 7: Staphylococcus aureus 693 E, read-out: MIC",0.049 µg/mL
same,MIC,"[20]; Table 2 strain 13: Staphylococcus aureus 705 E, read-out: MIC",0.098 µg/mL
same,MIC,[21],0.025 µg/mL
same,MIC,"[22]; Table 2 strain 11: Staphylococcus aureus 701 E, read-out: MIC",0.098 µg/mL
same,MIC,"[23]; Table 1 strain 5: Staphylococcus aureus 285, read-out: MIC",0.049 µg/mL
same,MIC,[24],1.56 µg/mL
same,MIC,"[25]; Table 2 strain 18: Staphylococcus aureus 714 E, read-out: MIC",0.098 µg/mL
same,MIC,Escherichia coli DC 2,0.098 µg/mL
same,MIC,Escherichia coli DC 0 [26],0.025 µg/mL
same,MIC,"[27]; Table 2 strain 2: Staphylococcus aureus 121 E, read-out: MIC",0.098 µg/mL
same,MIC,"[28]; Table 2 strain 5: Staphylococcus aureus 690 E, read-out: MIC",0.049 µg/mL
same,MIC,"[29]; Table 2 strain 14: Staphylococcus aureus 706 E, read-out: MIC",0.098 µg/mL
same,MIC,[30],0.049 µg/mL
same,MIC,[35],0.098 µg/mL
same,MIC,Escherichia coli 1507 E,0.098 µg/mL
same,MIC,"[31]; Table 1 strain 6: Staphylococcus aureus 503, read-out: MIC",0.049 µg/mL
same,MIC,[32],0.195 µg/mL
